Assay results: patent publication US8529927B2, “Alpha-2 agonist polymeric drug delivery systems” (Allergan, Inc., priority 2004, dated 2013)
Where two headings read alike, the source gives them in different places.

Key:
[1] = tested on: Branch retinal vein occlusion (BRVO); test: intravitreal implants in monkeys with laser-induced branch retinal vein occlusion (BRVO); assay type: in vivo, Cynomolgus monkeys
Description: Baseline measures were performed 3 days prior to implantation and 10 days following implantation with intraocular pressure (IOP), mfERG, laser Doppler scanning topography/flowmetry (HRT/HRF), optical coherence tomography (OCT), indocyanine green angiography (ICG) and fluorescein angiography (FA).
Wide angle contact lens fundus photography verified implant count and localization.
Branch retinal vein occlusion (BRVO) was achieved by injecting 1 ml of 20 mg/kg Rose Bengal intravenously followed by thermal irradiation using Omni Coherent Diode laser at 532 nm, 600 mW, 50 um spot size, 0.01 sec pulse mode with a 1.6× inversion contact lens. Laser pulses were delivered until the vein segment was closed. […] Occlusion was verified post-laser by fundus photography.
Delay in fluorescein filling of the occluded vein was quantified using Metamorph 6.0 software. Intensity measurements were made with pre-defined regions of interest for early and late phases of fluorescein angiography to quantify delay in filling and the observed delay in fluorescein clearance.
Intraocular pressure (IOP) was recorded (OD and OS) in each group in triplicate post implantation and prior to all follow-up electrophysiology and retinal imaging procedures.
Multi-focal ERG was performed using a VERIS 5.0 system.

in vivo = test: in vivo
Description: A separate group of rabbits were studied to obtain pharmacokinetic data. In these rabbits the implants were inserted using a surgical intravitreal implantation procedure performed as follows: a conjunctival incision was made, and a sclerotomy was performed with a 20-gauge MVR blade. The sclerotomy was 3 mm from the limbus and lateral to the dorsal rectus muscle between the 10 and 12 o'clock positions on the right eye, and between the 12 and 2 o'clock positions on the left eye. Using a sterile forceps, the test article was inserted through the sclerotomy. The sclerotomy was closed with 9-0 Prolene suture material. A sterile ocular lubricant was applied to the eye following the implantation procedure. Blood was collected from rabbits prior to euthanasia/necropsy on Days 8, 31, 58, 91, 136, or 184. The aqueous humor, vitreous humor, lens, retina and plasma samples from the rabbits were analyzed by using liquid chromatography-mass spectrometry/mass spectrometry (LC-MS/MS) methods.

[2] = cited from earlier work
[3] = albino, rabbit, lens, other: intravitreal implantation, 200 μg
[4] = albino, rabbit, plasma, other: intravitreal implantation, 200 μg
[5] = albino, rabbit, retina, other: intravitreal implantation, 200 μg
[6] = albino, rabbit, vitreous humor, other: intravitreal implantation, 200 μg

- Iris-ciliary body brimonidine concentration, estimated mean value in parentheses (in vivo; Day 8, Formulation #17 implant, estimate including ALQ samples): 3010 ng/g
- Iris-ciliary body brimonidine concentration (in vivo; Day 8 after intravitreal 200 μg brimonidine implant (Formulation #17), N = 2, two samples ALQ): 942 ng/g
- period of detectable release from the implant into the vitreous (in vivo; Formulation #17 implant): at least a ninety day period
- time brimonidine was present in the retina (in vivo; Formulation #17 implant): at least 84 days
- concentration at 91 day (in vivo; albino, rabbit, iris-ciliary body, other: intravitreal implantation, 200 μg): 42.9 ± 18.7 ng/g
- concentration at 58 day (in vivo; [3]): 17.9 ± 12.5 ng/g
- concentration at 136 day (in vivo; [3]): 16.2 ± 12.3 ng/g
- concentration at 184 day (in vivo; [3]): 1.18 ± 0.71 ng/g
- concentration at 8 day (in vivo; [4]): 0.092 ng/mL
- concentration at 31 day (in vivo; [4]): 0.0575 ng/mL
- concentration at 58 day (in vivo; [4]): 0.255 ng/mL
- concentration at 58 day (in vivo; [5]): 122 ± 57.3 ng/g
- concentration at 91 day (in vivo; [5]): 488 ± 471 ng/g
- concentration at 184 day (in vivo; [5]): 59.8 ± 35 ng/g
- concentration at 31 day (in vivo; [6]): 9.35 ± 6.25 ng/mL
- concentration at 58 day (in vivo; [6]): 5.6 ± 3.24 ng/mL
- detectability in the aqueous humor (in vivo; any time point (Days 8-184), Formulation #17 implant): not detectable at any time point
Structure (SMILES): Brc1c(NC2=NCCN2)ccc2nccnc12 [brimonidine, 5-bromo-6-(2-imidazolidinylideneamino) quinoxaline]
- blood flow in the fovea (Laser Doppler Flowmetry) ([1]; following BRVO, FIG. 14): unchanged
- amount of laser burns needed to close the veins ([1]; n=2): 157±79
- route of clearance after release from the intravitreal implant (in vivo; Formulation #17 implant): posterior clearance as opposed to an anterior clearance
- solubility in water ([2]; listed as brimonidine free base): not water soluble
- solubility in water ([2]; listed as brimonidine freebase): negligible
